# Reference: PMC4364779, “IMD-4690, a Novel Specific Inhibitor for Plasminogen Activator Inhibitor-1, Reduces Allergic Airway Remodeling in a Mouse Model of Chronic Asthma via Regulating Angiogenesis and Remodeling-Related Mediators” (PLoS ONE, 2015)
# Legend:
# binding of tPA and PAI-1 = binding of tPA and PAI-1 (Homo sapiens, UniProt P05121); assay: Inhibition of tPA/PAI-1 complex formation (SDS-PAGE, silver staining, densitometry); conditions: recombinant PAI-1 + IMD-4690 in PBS 37°C 5 min, then tPA 37°C 5 min; tPA/PAI-1 complex band densitometry
# binding of tPA and PAI-1, sequence (P05121 24-402): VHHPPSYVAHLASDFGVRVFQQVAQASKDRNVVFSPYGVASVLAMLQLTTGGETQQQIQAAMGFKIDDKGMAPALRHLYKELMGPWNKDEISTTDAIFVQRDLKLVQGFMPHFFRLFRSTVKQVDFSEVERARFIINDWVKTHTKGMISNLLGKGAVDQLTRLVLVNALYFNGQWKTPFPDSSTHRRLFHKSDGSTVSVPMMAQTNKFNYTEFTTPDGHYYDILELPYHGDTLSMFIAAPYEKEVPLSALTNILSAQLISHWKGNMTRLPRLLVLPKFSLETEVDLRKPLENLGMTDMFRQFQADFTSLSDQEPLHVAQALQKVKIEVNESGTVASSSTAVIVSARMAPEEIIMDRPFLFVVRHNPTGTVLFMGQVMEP
# Description: Fig 1 Schedule of in vivo experiments and biological activity of IMD-4690. (A) Protocols for the mouse experiments. (B) Inhibitory effects of IMD-4690 on the binding of tPA and PAI-1. The recombinant PAI-1 and IMD-4690 were mixed and incubated in PBS at 37°C for 5 min. Then tPA was added. After incubation at 37°C for 5 min, samples were applied for 10% SDS-PAGE and visualized with a silver staining. The bands of tPA/PAI-1 complex were quantified by a densitometry, and calculated IC50.
# A synthetic PAI-1 inhibitor, IMD-4690, 2-[[3-(4-tert-Butylphenoxy)-4'- (trifluoromethoxy) [1,1'-biphenyl]-4-yl]oxy] acetic acid, was molecularly designed, synthesized. IMD-4690 inhibited the binding of tPA and PAI-1 at the IC50 of 8 μM (Fig. 1B).
# [1] = tested on: chronic allergen exposure model of bronchial asthma in mice; assay: Serum IgE (ELISA), chronic Dp asthma model; format: in vivo, mouse; conditions: 10 mg/kg i.p., vs Dp/CMC mice
# Description: All mice were sensitized on days 0 and 7 by intraperitoneal injections of 10 μg of Dp dissolved in 500 μL saline and mixed with 1mg of Alum (Sigma-Aldrich Japan). Dp-sensitized mice were challenged intranasally with 10 μg (10 μL) Dp in 70 μL saline on alternate days, 3 days per week, from days 14 to 67. The mice were also treated intraperitoneally with IMD-4690 (10 mg/kg) (Dp/IMD group) or CMC alone (Dp/CMC group) at the same day with Dp challenge. As a control, mice were challenged with saline and given CMC during this period (control/CMC group) (Fig. 1A). Each experiment was performed using six mice per group.
# Protein concentrations were determined by the BCA method (Pierce, Rockford, IL, USA). Cytokines, growth factors, enzymes, and serum IgE were determined using commercial ELISA kits. […]
smiles,measurement,setting,value
"CC(C)(C)c1ccc(Oc2cc(-c3ccc(OC(F)(F)F)cc3)ccc2OCC(=O)O)cc1 [IMD-4690, 2-[[3-(4-tert-Butylphenoxy)-4'-(trifluoromethoxy) [1,1'-biphenyl]-4-yl]oxy] acetic acid]",IC50,binding of tPA and PAI-1,8 µM
same,Serum IgE,[1],significantly decreased
